# Columns and labels:
# [1] = tested on: isolated human platelet mitochondria; test: ATP levels in isolated mitochondria incubated with supplement (chemiluminescence assay); assay type: biochemical; settings: 2.0 micromolar (maximum increase)
# Protocol: Experiment: Aliquots of isolated human platelet mitochondria were incubated for different amounts of time in the presence of differing concentrations of L-carnitine, a compound known to stimulate the uptake and metabolism of fat molecules for use by the mitochondria to produce ATP. Along the X-axis of this graph, the numbers 1, 2, 3, and 4 refer to 0, 0.2 micromolar, 2.0 micromolar, and 20 micromolar concentrations of L-carnitine in the mitochondrial incubation buffer. The mitochondrial aliquots in hatched columns (Series 1) were incubated for 20 minutes in the presence of the L-carnitine while the mitochondrial aliquots in non-hatched columns (Series 2) were incubated for 60 minutes in the presence of L-carnitine. After these incubation times, the samples were processed to measure ATP by a very sensitive chemiluminescence assay.
# purified human platelets = test: Fluo-4 staining of purified platelets (platelet activation); assay type: cell-based; settings: Fluo-4, with 2 mM calcium chloride
# Excerpt: FIGS. 6A and 6B provide further evidence of the functionality of the purified human platelets. […] Dull green fluorescence indicates functional but inactivated platelets. To activate platelets so they can begin to aggregate to initiate the blood clotting process, calcium ions should be at a significant concentration within the platelet cytoplasm.
# [2] = tested on: inner mitochondrial membrane potential of human platelets; settings: JC-1 2 μM, purified human platelets
# Protocol: In FIG. 5A, platelets are stained with mitochondrial inner membrane sensitive dye JC-1(2 μM) (630× magnification). […] The red stained mitochondria reflect mitochondria with a Wm capable of supporting ATP production. […] FCCP is an uncoupler, a chemical that destroys the inner mitochondrial membrane potential Wm.
structure (smiles),measurement,setting,value
C[N+](C)(C)C[C@H](O)CC(=O)[O-] [L-carnitine],increase in ATP levels,[1]; 20 minute incubation (Series 1),47%
same,increase in ATP levels,[1]; 60 minute incubation (Series 2),80%
CNc1ccc2oc(C[C@H]3O[C@@]4(CC[C@H]3C)O[C@H]([C@H](C)C(=O)c3ccc[nH]3)[C@H](C)C[C@H]4C)nc2c1C(=O)O [A23187],effect on Fluo-4 green fluorescence (platelet activation),purified human platelets,much more intense green fluorescence
"N#CC(C#N)=NNc1ccc(OC(F)(F)F)cc1 [FCCP, Carbonyl cyanide-4-(trifluoromethoxy)phenylhydrazone]",effect on JC-1 red fluorescence (functional mitochondria),[2],elimination of the red fluorescence
